Data on three compounds can be found in patent publication US10472341B2, “Bicyclic tetrahydrothiazepine derivatives useful for the treatment of neoplastic and/or infectious diseases” (APEIRON BIOLOGICS AG, priority 2015, dated 2019).

pEC50: −log10 of the molar value. Where two headings read alike, the source gives them in different places.

The subject of test [1] is CD4 T cells, CD8 T cells and NK cells of B16-F10-OVA tumor bearing mice. Nature of the test: Immune modulation of B16-F10-OVA tumor bearing mice: activation markers in tumor draining lymph nodes (flow cytometry). Format: in vivo, mouse. Particulars: day 15. The protocol: (§1) • Single cell suspension of splenocytes was prepared from the spleen by rinsing cells through a sterile 70 μm filter with PBS • Cells were collected by centrifugation in an 15 ml tube, the cell pellet was resuspended in 1 ml of Erylyse buffer and incubated at room temperature for 5 minutes, tubes were filled up with PBS and cells were washed twice • Cells were counted and resuspended in the desired buffer volume for MACS-enrichment or flow cytometric analysis Isolation of CD4 T Cells from OT-II Transgenic Mice • Splenocytes were resuspended in MACS buffer ([…] MACS-buffer/10^7 cells) • CD4 T cells were isolated using the CD4 T cell isolation kit (Miltenyi) with LS-columns following manufacturer's recommendations CFSE-Labeling of T Cells • Cells were resuspended in PBS with 0.1% BSA at 1×10^7 cells/ml and CFSE-solution was added to final concentration of 2.5 μM CFSE • Incubated for 10 min at 37° C., swung each 2 min • Same volume of FCS added and incubated for 5 min at room temperature • Cells were washed twice with RMPI-10% FCS medium • Cells were counted and resuspended in PBS or medium at desired concentration OT-II Transfer • Day 0: OT-II cells were transferred in PBS (3*10^6. Cells in 100 μl PBS) by retro-orbital injection • Day 1: WT mice got OVA vaccinated (subcut. flank, 10 μg LPS, 2 μg OVA per animal) • 2 & 4 h later compounds were administrated; for oral dosing compound was used as suspension (0.5% methylcellulose in water), for i.v. dosing compound was solubilized in DMSO and diluted with PBS • Day 2: compounds were administrated twice in the morning (with 2 h time interval) • Day 3: Mice were sacrificed & splenocytes were isolated • T cell proliferation & phenotype was determined by flow cytometry • Flow cytometry-Staining (all Abs purchased from eBioscience and used as recommended by the manufacturer): B220-eF450, CD4-PE, CD25PerCPCy5.5, CD69-PC7, TCRVa2-APC, CD8-AF700, CD3-eF780; CFSE; 7-AAD • Acquisition on Beckman-Coulter Gallios, Analysis using Kaluza Software OT-I Transfer to Mice with B16-F10-OVA Tumors • Day 0: 100000 B16-F10-OVA tumor cells were inoculated subcutaneously at the flank of WT-mice • Day 7: OT-I cells were transferred in PBS (3*10^6. […]

A further test concerns B16-F10-OVA tumors. Nature of the test: Immune modulation of B16-F10-OVA tumor bearing mice: tumor infiltration by immune cells (quantitative RT-PCR). Format: in vivo, mouse. Conditions: tumor mRNA. The method, then: as §1
The test system of the next test is non-stimulated PBMCs. Nature of the test: Non-stimulated PBMCs: cytokine secretion and signs of T-cell activation. Format: cell-based, human. From the text: This is an important finding for compounds that shall selectively act on T cells which have been activated by presence of antigen from pathogens or tumors, but shall not lead to an unwanted general activation of all T cells of a patient.

For test [2], the system named is aCD3/aCD28-stimulated human PBMCs. Nature of the test: Cytokine production in aCD3/aCD28 stimulated human PBMCs. Format: cell-based. Particulars: PBMC, 18 h. The essentials:
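Compound effects measured in buffy-coat PBMCs activated 18 h at 37° C by 1 μg/mL each of soluble anti-CD3 (OKT3) and anti-CD28 (28.2), 1e6 cells/mL. Cytokines in harvested supernatants read by MSD or HTRF.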

The subject of a further test is OT-II cells. Nature of the test: OT-II transfer model, oral administration: antigen-specific T cell proliferation and CD69. In kind it is in vivo, mouse. Particulars: LPS & OVA; 10 mg/kg dosed orally. The method, then:
as §1

Take `N[C@H]1CS(=O)(=O)c2cc(F)c(C(=O)NC3CC3(F)F)cc2N(Cc2ccc(Cl)cc2)C1=O` (stereo partly shown) [Compound Ex. 1]: in test [1] (CD4 T cells, 10 mg/kg orally), the “Average CD25+ cells” value was 15.63 % gated, the “Average CD69+ cells” value is 13.34 % gated, the “Average CD107a+ cells” value stood at 5.03 % gated and the “Average PD1+ cells” value was 10.73 % gated. In test [1] (CD4 T cells, 30 mg/kg orally), the “Average CD25+ cells” value turned out to be 15.91 % gated, the “Average CD69+ cells” value amounted to 14.25 % gated, the “Average CD107a+ cells” value is on record as 5.43 % gated and the “Average PD1+ cells” value worked out at 10.36 % gated. Besides, in test [1] (CD8 T cells, 10 mg/kg orally), the “Average CD25+ cells” value is reported as 1.95 % gated, the “Average CD69+ cells” value stood at 5.25 % gated, the “Average CD107a+ cells” value is given as 2.00 % gated and the “Average PD1+ cells” value is listed as 3.12 % gated. In test [1] (CD8 T cells, 30 mg/kg orally), the “Average CD25+ cells” value is 2.88 % gated, the “Average CD69+ cells” value was 5.91 % gated, the “Average CD107a+ cells” value is recorded as 4.24 % gated and the “Average PD1+ cells” value is listed as 6.71 % gated. Moreover, in test [1] (NK cells, 10 mg/kg orally), the “Average CD69+ cells” value was 34.43 % gated, the “Average CD107a+ cells” value stood at 12.85 % gated and the “Average PD1+ cells” value was found to be 19.91 % gated. For the same compound, in test [1] (NK cells, 30 mg/kg orally), the “Average CD69+ cells” value was 32.55 % gated, the “Average CD107a+ cells” value was found to be 10.98 % gated and the “Average PD1+ cells” value is listed as 13.61 % gated. Also, in the test on B16-F10-OVA tumors (10 mg/kg orally), the “Average CD4 expression” value is given as 7.07 EF1a * 10^4, the “Average CD8 expression” value was 6.28 EF1a * 10^4, the “Average IFN-g expression” value came out at 0.75 EF1a * 10^4 and the “Average IL-2 expression” value was determined as 0.043 EF1a * 10^4. In the test with B16-F10-OVA tumors (10 mg/kg orally), the “Average IL-12 expression” value came to 0.074 EF1a * 10^4, the “Average IL-23 expression” value stood at 0.480 EF1a * 10^4, the “Average Ratio Eomes/Foxp3” value came out at 0.66 and the “Average Ratio Rorgc/Foxp3” value is listed as 5.38. In the test with B16-F10-OVA tumors (10 mg/kg orally), the “Average Ratio T-bet/Foxp3” value stood at 8.35 and the “Average TNF-a expression” value was 9.96 EF1a * 10^4. Moreover, in the test on B16-F10-OVA tumors (30 mg/kg orally), the “Average CD4 expression” value amounted to 9.65 EF1a * 10^4, the “Average CD8 expression” value is given as 10.72 EF1a * 10^4, the “Average IFN-g expression” value came to 1.23 EF1a * 10^4 and the “Average IL-2 expression” value stood at 0.085 EF1a * 10^4. Besides, in the test with B16-F10-OVA tumors (30 mg/kg orally), the “Average IL-12 expression” value is reported as 0.120 EF1a * 10^4, the “Average IL-23 expression” value is given as 0.611 EF1a * 10^4, the “Average Ratio Eomes/Foxp3” value is given as 0.64 and the “Average Ratio Rorgc/Foxp3” value is on record as 6.17. For the same compound, in the test with B16-F10-OVA tumors (30 mg/kg orally), the “Average Ratio T-bet/Foxp3” value came out at 9.59 and the “Average TNF-a expression” value is given as 14.97 EF1a * 10^4.

As for `CC(=O)NCCCCCOc1ccc(CNC(=O)c2ccc3c(c2)N(Cc2ccc(Cl)cc2)C(=O)[C@@H](N)CS3(=O)=O)cc1.Cl` [Example 78, (3R)-3-amino-5-[(4-chlorophenyl)methyl]-N-({4-[(5-acetamidopentyl)oxy]phenyl}-methyl)-1,1,4-trioxo-2,3,4,5-tetrahydro-1λ^6,5-benzothiazepine-7-carboxamide hydrochloride], the “cytokine secretion or other signs of T-cell activation” value in the test with non-stimulated PBMCs is “did not enhance cytokine secretion or other signs of T-cell activation”. In addition, the pEC50 in test [2] (enhancement of IFN-γ production, read-out: Activity Class IFN-γ) was more than 5.80; in test [2] (enhancement of IL-2 production, read-out: Activity Class IL-2), more than 5.80.

With `N[C@H]1CS(=O)(=O)c2cc(F)c(C(=O)NC3CC3(F)F)cc2N(Cc2ccc(Cl)cc2)C1=O` (stereo partly shown) [compound ex. 1], in the test on OT-II cells, the “CD69+ cells, B cells of recipient animal” value was 2.10 % gated; the “CD69+ cells, CD8 T cells of recipient animal” value turned out to be 3.48 % gated; the “CD69+ cells, WT CD4 T cells of recipient animal” value came out at 7.00 % gated; the “CD69+ cells, transferred OT-II cells” value stood at 46.92 % gated.
